Among the data in the METLIN SMRT retention time set (Domingo-Almenara et al. 2019) are RP-LC retention time values, retold here.

The nature of this series: gradient 5% acetonitrile 3 min, to 50% in 2 min, to 85% in 15 min, held 3 min, 100 µL/min. The following applies: column: Zorbax Extend-C18 2.1 x 50 mm; eluents: water / acetonitrile, 0.1% formic acid. The method in brief: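 Retention time was recorded from adduct peaks, which were picked computationally and each inspected manually. Pure standards ran in mixtures of ~100 molecules on HPLC coupled to a quadrupole time-of-flight mass spectrometer, in positive and negative ionization mode, through a Zorbax Extend-C18 column (2.1 × 50 mm, 1.8 μm) at 100 μL/min. Eluents were water and acetonitrile, each with 0.1% formic acid.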
On to `CCc1ccc(NC(=O)C2CCN(S(=O)(=O)c3cc(C(=O)N4CCCC4)cs3)CC2)cc1`, for which the RP-LC retention time was found to be 922 s.
`Cn1c(=O)n(C)c2cc(S(=O)(=O)c3ccc(F)cc3)c(NC(=O)c3cccc(F)c3)cc21` returned an RP-LC retention time of 896 s.
Under `Cc1ccc(Nc2c(-c3ccc(Cl)cc3)nc3cnccn23)c(C)c1` stands 1080 s.
Under `CCNC(=O)N1CCCC(c2cccc(C(=O)NCc3ccccc3C)c2)C1` (stereo not drawn) stands 775 s; under `O=C(NCCn1nnc2cc(C(=O)N3CCCC3)ccc21)Nc1cccc(Br)c1`, 722 s.
Under `Cc1c(F)cccc1NC(=O)C1CCc2nc(N3CCOCC3)ncc2C1` (stereo not drawn) stands 808 s; under `CCOC(=O)c1ccc(NC(=O)c2c(OCC)cc(=O)n3c2CCCC3)cc1`, 770 s.
In turn, `O=C(C1CCC1)N1CCCC(Cc2nncn2CC2CC2)C1` (stereo not drawn) yielded an RP-LC retention time of 596 s.
Turning to `CCn1cc(S(=O)(=O)Nc2cc(Cl)ccc2OC)c2cccnc21`, the RP-LC retention time came out at 908 s.
Under `c1cnn(-c2ccc(-c3noc(C4CCC4)n3)cn2)c1` stands 1090 s; under `COc1ccc(CCC(=O)NCC(=O)Nc2nc3ccccc3[nH]2)cc1`, 639 s.
In turn, `O=C(NCCCN1CCCC1)c1cc(-c2cccnc2)nc2ccccc12` yielded an RP-LC retention time of 562 s.
Under `O=C(Nc1ccc(C(F)(F)F)cc1)N1CCCC1c1nncn1C1CCCC1` (stereo not drawn) stands 781 s; under `Cc1nc2cc(N3CCC(C(=O)Nc4ccc(Cl)cc4)CC3)cnc2nc1C`, 790 s.
Under `NS(=O)(=O)c1ccc(NC(=O)CC2Sc3ccc(C(F)(F)F)cc3NC2=O)cc1` (stereo not drawn) stands 722 s; under `CCOC(=O)c1ccccc1NC(=O)N1CCC(C(=O)NCc2csc(-c3ccccc3)n2)CC1`, 993 s.
Under `CC1Oc2ccc(-c3csc(NC(=O)c4cccc(F)c4)n3)cc2N(C)C1=O` (stereo not drawn) stands 943 s.
`O=C(NCCN1CCCCC1)c1ccc2c(=O)n(-c3ccc(F)cc3)c(N3CCCC3)nc2c1` showed an RP-LC retention time of 629 s.
`COc1ccc(-c2csc(Nc3ccc(S(=O)(=O)Nc4cc(C)on4)cc3)n2)cc1`: the RP-LC retention time was 939 s.
Under `Cc1ccc(CNC(=O)Cn2nc(C(=O)N3CCCC3)c3ccccc32)o1` stands 755 s; under `N#Cc1cnc2ccc(Cl)cc2c1N1CCC(C(=O)Nc2cccc(C(F)(F)F)c2)CC1`, 1120 s; under `O=C(NCc1cccs1)c1nnc(-c2ccc(S(=O)(=O)N3CCCCC3)cc2)o1`, 939 s.
Under `Cc1nn(-c2ccccc2)c(C)c1S(=O)(=O)N1CCC(C(=O)NC2CCCCCCC2)CC1` stands 1050 s.
`Cc1ccc(CNC2=NCCNC23CCN(S(=O)(=O)c2ccc(C)cc2)CC3)cc1` gave an RP-LC retention time of 736 s.
Under `Cc1cc(C)c(S(=O)(=O)N2CCC(C(=O)NCCc3csc(-c4ccccc4)n3)CC2)c(C)c1` stands 1070 s; under `CN(C)C(=O)c1ccc2c(c1)nc(CN1CCN(C(=O)COc3ccc(Cl)cc3)CC1)n2C`, 640 s.
`CC(C)(C)N(Cc1ccc2c(c1)OCO2)C(=O)/C=C\S(=O)c1ccccc1` (stereo not drawn) registered an RP-LC retention time of 902 s.
Under `O=C(NC1CCCCC1)c1cccc2c1CCN2C(=O)C1CC1` stands 832 s; under `O=S(=O)(c1ccccc1Cl)N1CCC(OCc2noc(C3CCCO3)n2)CC1` (stereo not drawn), 912 s.
Under `COc1ccc(N2C(=O)C3N=NN(c4ccc(F)c(Cl)c4)C3C2=O)cc1` (stereo not drawn) stands 1010 s; under `Cc1ccc(-c2csc(-n3nc(C)c(CC(=O)Nc4ccc(C)c(C)c4)c3C)n2)cc1`, 1310 s.
For `O=C(c1cccc(N2C(=O)CCS2(=O)=O)c1)N1CCN(c2ccccn2)CC1`, the RP-LC retention time was 726 s.
Under `Cc1cccc(-c2ncccc2CNS(=O)(=O)c2cccc(C#N)c2)c1` stands 700 s; under `O=C(c1ccc(Br)cc1)N1CCN(c2nnc3ccccn23)CC1`, 653 s.
For the compound `CCC(=O)N1CCc2cc(-c3ccc(C(=O)NCCc4ccco4)cc3)ccc21`, the RP-LC retention time was 888 s.
In turn, `Cc1c(C(=O)NC2CC2)cnn1-c1ccc(-c2nc(C(C)C)no2)cn1` yielded an RP-LC retention time of 849 s.
Under `COc1ccc(CN2C=C(C(=O)OCc3noc(-c4cccc(F)c4)n3)C(C)=NS2(=O)=O)cc1` stands 1050 s; under `Cc1noc([C@@H]2CN(Cc3ccc(F)cc3Cl)C[C@H]2CO)n1`, 600 s.
Under `COc1ccc(NC(=O)Cn2c(N3CCCCC3)nc(C)cc2=O)c(OC)c1` stands 680 s; under `CCCN(C)C(=O)CCC1CCN(c2cc(NC3CC3)ncn2)CC1`, 648 s; under `O=C(Cn1ncc2c(N3CCN(c4ccccn4)CC3)ncnc21)Nc1ccc(OC(F)(F)F)cc1`, 660 s.
Under `COCc1cc(=O)n2c(n1)N(Cc1c(C)noc1C)CC2` stands 626 s; under `O=C(CC1COc2ccccc2NC1=O)Nc1ccc(F)c(Cl)c1` (stereo not drawn), 788 s; under `CC(C)C(=O)NCCC1CCN(C(=O)Nc2cc(F)ccc2F)CC1`, 742 s.
The compound `CCCN1C(=O)CN(S(=O)(=O)c2ccccc2)CC1(C)C(=O)NCc1ccccc1` (stereo not drawn) came in with an RP-LC retention time of 809 s.
Under `CCOc1ccc(C(C)NC(=O)c2cn3ccc(C)cc3n2)cc1` (stereo not drawn) stands 697 s; under `CCSc1nnc(-c2nn(C)c3c2CN(C(=O)c2cc(C)cc(C)c2)CC3)n1C`, 811 s; under `CN1CC(=O)NC(c2ccccc2Cl)C1=O` (stereo not drawn), 541 s.
Under `CCCn1cc(S(=O)(=O)Nc2ccc(C)c(C)c2)c2cccnc21` stands 960 s.
Under `O=C(NCc1cccs1)c1ccc(N2CCCCS2(=O)=O)cc1` stands 696 s; under `Cn1nc(-c2nnc(-c3ccccc3Cl)o2)c2c1CCN(C(=O)c1ccco1)C2`, 784 s; under `COCCNC(=O)C1CCN(c2cncnc2N2CCCCC2)CC1`, 588 s.
In turn, `FC(F)(F)Oc1ccccc1CN1CCC[C@H]1c1nc(C2CCOCC2)n[nH]1` showed an RP-LC retention time of 597 s.
Consider `Cc1ccccc1S(=O)(=O)N1CCC(c2noc(-c3cccnc3)n2)C1` (stereo not drawn), for which the RP-LC retention time worked out at 908 s.
On to `O=C(Nc1ccccc1Cl)N1CCCC1c1nc(-c2ccc(F)cc2F)no1` (stereo not drawn), for which the RP-LC retention time came out at 1040 s.
Under `Cc1ccc(S(=O)(=O)N2CCCC2CNC(=O)c2ccc(F)c(F)c2)cc1` (stereo not drawn) stands 896 s; under `CCC[C@@H]1C[C@@H](C(=O)N[C@@H]([C@H]2O[C@H](SC)[C@@H](O)[C@@H](O)[C@H]2O)[C@@H](C)O)N(C)C1`, 584 s; under `CC1CCN(S(=O)(=O)c2ccc3nc(N4CCN(c5ccccc5)CC4)ccc3c2)CC1`, 962 s.
